Laboratory results taken from patent publication US10508103B2, “Benzimidazole-linked indole compound acting as novel divalent IAP antagonist” (MEDSHINE DISCOVERY INC., priority 2016, dated 2019).

What was measured:
XIAP-BIR3 Protein = XIAP-BIR3 Protein (Homo sapiens (Human), UniProt P98170); assay: Fluorescence polarization affinity of compounds to XIAP-BIR3; format: binding; details: XIAP-BIR3 30 nM; 5 nM ARPFAQ-K(5-FAM)-NH2 probe; FP; pH 7.5; read-out: affinity to target protein in vitro, XIAP-BIR3 Protein (IC50)
Method: (§1) Biological Assay 1: affinity of compounds to cIAP1-BIR3, cIAP2-BIR3, XIAP-BIR3 • 1) Affinity of compounds listed in table to cIAP1-BIR3, Ciap2-BIR3, XIAP-BIR3 was tested referring to Nikolovska-Colesks, Z. et.Al. (Analytical Biochemistry,2004,232:261-273) to obtain IC50 value. Generally speaking, in 10-dose IC50 mode, IAP antagonists with different concentrations were diluted in series by 3-fold and fluorescence labelled ARPFAQ-K (5-FAM)-NH2 peptide was used as probe to test compounds binding to protein BIR3 domain. • 2) Test condition: cIAP1-BIR3: 20 nM; cIAP2-BIR3: 60 nM; XIAP-BIR3: 30 nM; 5 nM probe in 100 mM tripotassium phosphate, pH 7.5, 0.1 mg/mL BSA, 0.005% Triton X100 and 0.5% DMSO. • 3) Test procedure: compounds were added into protein with different concentrations by using ECHO (LabCyte), and then the mixture was preincubated for 15 min. The probe was added and the final concentration was 5 nM. After incubating for 60 min, FP was tested and mP was calculated. Experiment results were list in table 1.

[1] = system: NF-κB Luciferase Reporter Hela cells; assay: TNF-α inducing NF-κB reporter; format: cell-based; details: Homo sapiens, 6 h, Bright-Glo luciferase
Method: Biological Assay 2: TNF-α inducing NF-κB reporter
• 1) tested compounds were added into DMSO to give parent liquor (10 mM); • 2) reference compound Birinapant (32 μL, 10 mM) was added into DMSO (128 μL) to give a solution (2 mM); • 3) 0.5 μL reference compound Birinapant (2 mM) and tested compounds (10 mM) were taken by Echo and added into Greiner 96 well black cell culture plate respectively. The initial concentration of the reference compound and tested compound was 10 μM and 50 μM, respectively. Then, the reference compound and tested compounds were diluted at 9 points in series by 5-fold; and every plate was repeated for 3 times. • 4) the reference compound WXFL2012A001 (Birinapant) (final concentration: 10 μM) as HPE and DMSO (final concentration: 0.5%) as ZPE.
• 5) purpose of the three repeated plates: the first plate was used for testing compounds' activity;
the second plate was used for testing cytotoxicity of the compounds; the third plate was used for solution replacement of the first and second plates: mixing inducer TNF-α and medium containing 0.1% FBS, and then being added to the third plate and the resultant mixture was transferred to the first plate where supernatants had been removed.
• 1) removing medium in NF-iBLuciferase Reporter Hela cell culture flask and washing cell once with PBS (10 mL) • 2) adding 0.25% pancreatin (3 mL) to T150 cell culture flask, and placinginto cell incubator (37° C., 5%CO2) and dissociating cell for 3 min, and then medium (10 mL) was added to end dissociation and blowing cells with electric pipette until cells were dispersed into single cell. • 3) Calculating cell density with cell counter Countstar • 4) Adjusting NF-κB Luciferase Reporter Hela density with medium to 2.0×10^5 cells/mL • 5) Adding cells to two Greiner 96 well black cell culture plates containing compounds, (100 μL per well (2.0×10^4 cells/well)), one plate was used for testing compounds' activity, another was used for testing cytotoxicity of the compounds. • 6) Placing cell culture plates into cell incubator (37° C., 5%CO2) and incubatingfor 24 h Second Day TNF-α Inducing • 1) TNF-α (100 μg/mL) was diluted into 20 ng/mL with 0.1% FBS medium and transferredto the third plate with 100 μL per well • 2) Removing medium of the first 96 well black cell culture plate (compound activity testing plate) after 24 h, replacing with fresh medium containing the compound and 20 ng/mL TNF-α in the third plate • 3) Placing cell culture plate into cell incubator (37° C., 5% CO2) and incubatingfor 6 h • 4) after 6 h, compound's activity in the first plate was tested according to Bright-Glo (Promega) manual method, luciferase signal in each well was tested by Envision plate reader • 5) compound's cytotoxicity in the second plate was tested according to ATPlite 1Step (Perkin Elmer) manual method, luciferase signal in each well was tested by Envision plate reader • 6) analyzing with software to obtain EC50 of compound.

cIAP2-BIR3 Protein = cIAP2-BIR3 Protein (Homo sapiens (Human), UniProt Q13489); assay: Fluorescence polarization affinity of compounds to cIAP2-BIR3; format: binding; details: cIAP2-BIR3 60 nM; 5 nM ARPFAQ-K(5-FAM)-NH2 probe; FP; pH 7.5; read-out: affinity to target protein in vitro, cIAP2-BIR3 Protein (IC50)
Method: as §1

cIAP1-BIR3 Protein = cIAP1-BIR3 Protein (Homo sapiens (Human), UniProt Q13490); assay: Fluorescence polarization affinity of compounds to cIAP1-BIR3; format: binding; details: cIAP1-BIR3 20 nM; 5 nM ARPFAQ-K(5-FAM)-NH2 probe; FP; pH 7.5; read-out: affinity to target protein in vitro, cIAP1-BIR3 Protein (IC50)
Method: as §1

[2] = Table 3, 20 ng/mL TNF-α, values given as ranges
[3] = Table 4, 20 ng/mL TNF-α, exact values with control Birinapant

XIAP-BIR3 Protein, sequence (P98170 241-356): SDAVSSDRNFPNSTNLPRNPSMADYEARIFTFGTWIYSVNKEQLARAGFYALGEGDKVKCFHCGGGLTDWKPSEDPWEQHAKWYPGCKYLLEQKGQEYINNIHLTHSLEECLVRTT
cIAP2-BIR3 Protein, sequence (Q13489 238-349): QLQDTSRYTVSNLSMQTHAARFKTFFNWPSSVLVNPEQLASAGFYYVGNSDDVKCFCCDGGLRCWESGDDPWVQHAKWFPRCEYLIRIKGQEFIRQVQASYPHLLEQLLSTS
cIAP1-BIR3 Protein, sequence (Q13490 253-363): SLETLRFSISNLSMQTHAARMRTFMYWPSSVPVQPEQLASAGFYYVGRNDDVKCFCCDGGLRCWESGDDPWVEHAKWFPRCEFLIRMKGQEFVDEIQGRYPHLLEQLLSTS

Row | Compound | EC50 [1, 2] [nM] | also measured
1 | CN[C@@H](C)C(=O)N[C@H](C(=O)N1C[C@@H](F)C[C@H]1Cc1c(-c2nc3cc(F)ccc3n2C[C@@H]2C[C@H](F)CN2C(=O)[C@@H](NC(=O)[C@H](C)NC)C2CC2)[nH]c2cc(F)ccc12)C(C)C [Embodiment 21] | 10 to 100 | IC50 (XIAP-BIR3 Protein): 10 to 100 nM; IC50 (cIAP2-BIR3 Protein): 10 to 100 nM; IC50 (cIAP1-BIR3 Protein): < 10 nM
2 | CN[C@@H](C)C(=O)N[C@H](C(=O)N1C[C@@H](F)C[C@H]1Cc1c(-c2nc3cc(F)ccc3n2C[C@@H]2C[C@H](F)CN2C(=O)[C@@H](NC(=O)[C@H](C)NC)C(C)C)[nH]c2cc(F)ccc12)C(C)C [Embodiment 16] | < 10 | IC50 (XIAP-BIR3 Protein): 10 to 100 nM; EC50 [1, 3]: 0.66 nM; IC50 (cIAP2-BIR3 Protein): 10 to 100 nM; IC50 (cIAP1-BIR3 Protein): < 10 nM
3 | CC[C@H](NC(=O)[C@H](C)NC)C(=O)N1CCC[C@H]1Cn1c(-c2[nH]c3cc(F)ccc3c2C[C@@H]2CCCN2C(=O)[C@@H](NC(=O)[C@H](C)NC)C(C)(C)C)nc2cc(F)ccc21 [Embodiment 5] | 10 to 100 | –
4 | CC[C@H](NC(=O)[C@H](C)NC)C(=O)N1CCC[C@H]1Cc1c(-c2nc3cc(F)ccc3n2C[C@@H]2CCCN2C(=O)[C@@H](NC(=O)[C@H](C)NC)C2CCCCC2)[nH]c2cc(F)ccc12 [Embodiment 4] | 10 to 100 | –
5 | CC[C@H](NC(=O)[C@H](C)NC)C(=O)N1CCC[C@H]1Cc1c(-c2nc3cc(F)ccc3n2C[C@@H]2CCCN2C(=O)[C@@H](NC(=O)[C@H](C)NC)C(C)(C)C)[nH]c2cc(F)ccc12 [Embodiment 3] | < 10 | –
6 | CCC[C@H](NC(=O)[C@H](C)NC)C(=O)N1C[C@@H](F)C[C@H]1Cn1c(-c2[nH]c3cc(F)ccc3c2C[C@@H]2C[C@H](F)CN2C(=O)[C@@H](NC(=O)[C@H](C)NC)C(C)(C)C)nc2cc(F)ccc21 [Embodiment 35] | < 10 | –
7 | CC[C@H](NC(=O)[C@H](C)NC)C(=O)N1CCC[C@H]1Cc1c(-c2nc3cc(F)ccc3n2C[C@@H]2C[C@H](F)CN2C(=O)[C@@H](NC(=O)[C@H](C)NC)C(C)C)[nH]c2cc(F)ccc12 [Embodiment 37] | 10 to 100 | –
8 | CCC[C@H](NC(=O)[C@H](C)NC)C(=O)N1C[C@@H](F)C[C@H]1Cc1c(-c2nc3cc(F)ccc3n2C[C@@H]2C[C@H](F)CN2C(=O)[C@@H](NC(=O)[C@H](C)NC)C2CCCCC2)[nH]c2cc(F)ccc12 [Embodiment 34] | < 10 | –
9 | CCC[C@H](NC(=O)[C@H](C)NC)C(=O)N1C[C@@H](F)C[C@H]1Cc1c(-c2nc3cc(F)ccc3n2C[C@@H]2C[C@H](F)CN2C(=O)[C@H](CCC)NC(=O)[C@H](C)NC)[nH]c2cc(F)ccc12 [Embodiment 15] | 10 to 100 | –
10 | CCC[C@H](NC(=O)[C@H](C)NC)C(=O)N1CCC[C@H]1Cc1c(-c2nc3cc(F)ccc3n2C[C@@H]2CCCN2C(=O)[C@@H](NC(=O)[C@H](C)NC)C2CCCCC2)[nH]c2cc(F)ccc12 [Embodiment 9] | 10 to 100 | –
11 | CC[C@H](NC(=O)[C@H](C)NC)C(=O)N1C[C@@H](O)C[C@H]1Cc1c(-c2[nH]c3cc(F)ccc3c2C[C@@H]2C[C@H](O)CN2C(=O)[C@H](CC)NC(=O)[C@H](C)NC)[nH]c2cc(F)ccc12 [Birinapant, reference compound] | – | EC50 [1, 3]: 7.05 nM
12 | CN[C@@H](C)C(=O)N[C@H](C(=O)N1C[C@@H](F)C[C@H]1Cc1c(-c2nc3cc(F)ccc3n2C[C@@H]2[C@@H](C)[C@@H](C)CN2C(=O)[C@@H](NC(=O)[C@H](C)NC)C(C)C)[nH]c2cc(F)ccc12)C(C)C [Embodiment 49] | < 10 | –
13 | CCC[C@H](NC(=O)[C@H](C)NC)C(=O)N1CCC[C@H]1Cc1c(-c2nc3cc(F)ccc3n2C[C@@H]2CCCN2C(=O)[C@@H](NC(=O)[C@H](C)NC)C(C)(C)C)[nH]c2cc(F)ccc12 [Embodiment 8] | < 10 | –
14 | CC[C@H](NC(=O)[C@H](C)NC)C(=O)N1CCC[C@H]1Cn1c(-c2[nH]c3cc(F)ccc3c2C[C@@H]2C[C@H](F)CN2C(=O)[C@@H](NC(=O)[C@H](C)NC)C(C)C)nc2cc(F)ccc21 [Embodiment 41] | 10 to 100 | –
15 | CCC[C@H](NC(=O)[C@H](C)NC)C(=O)N1C[C@@H](F)C[C@H]1Cc1c(-c2nc3cc(F)ccc3n2C[C@@H]2C[C@H](F)CN2C(=O)[C@@H](NC(=O)[C@H](C)NC)C(C)(C)C)[nH]c2cc(F)ccc12 [Embodiment 33] | < 10 | –
16 | CC[C@H](NC(=O)[C@H](C)NC)C(=O)N1C[C@@H](F)C[C@H]1Cc1c(-c2nc3cc(F)ccc3n2C[C@@H]2[C@@H](C)[C@@H](C)CN2C(=O)[C@H](CC)NC(=O)[C@H](C)NC)[nH]c2cc(F)ccc12 [Embodiment 48] | 10 to 100 | –
17 | CC[C@H](NC(=O)[C@H](C)NC)C(=O)N1C[C@@H](F)C[C@H]1Cc1c(-c2nc3cc(F)ccc3n2C[C@@H]2C[C@H](F)CN2C(=O)[C@@H](NC(=O)[C@H](C)NC)C(C)C)[nH]c2ccccc12 [Embodiment 50] | 10 to 100 | –
18 | CCC[C@H](NC(=O)[C@H](C)NC)C(=O)N1CCC[C@H]1Cn1c(-c2[nH]c3cc(F)ccc3c2C[C@@H]2CCCN2C(=O)[C@@H](NC(=O)[C@H](C)NC)C(C)C)nc2cc(F)ccc21 [Embodiment 10] | 10 to 100 | –
19 | CCC[C@H](NC(=O)[C@H](C)NC)C(=O)N1CCC[C@H]1Cc1c(-c2nc3cc(F)ccc3n2C[C@@H]2CCCN2C(=O)[C@@H](NC(=O)[C@H](C)NC)C(C)C)[nH]c2cc(F)ccc12 [Embodiment 7] | 10 to 100 | –
20 | CC[C@H](NC(=O)[C@H](C)NC)C(=O)N1C[C@@H](F)C[C@H]1Cc1c(-c2nc3cc(F)ccc3n2C[C@@H]2C[C@H](F)CN2C(=O)[C@@H](NC(=O)[C@H](C)NC)C(C)C)[nH]c2cc(Cl)ccc12 [Embodiment 51] | < 10 | –
21 | CC[C@H](NC(=O)[C@H](C)NC)C(=O)N1CC(F)(F)C[C@H]1Cn1c(-c2[nH]c3cc(F)ccc3c2C[C@@H]2CC(F)(F)CN2C(=O)[C@@H](NC(=O)[C@H](C)NC)C(C)C)nc2cc(F)ccc21 [Embodiment 47] | 10 to 100 | –
22 | CC[C@H](NC(=O)[C@H](C)NC)C(=O)N1CCC[C@H]1Cn1c(-c2[nH]c3cc(F)ccc3c2C[C@@H]2CCCN2C(=O)[C@@H](NC(=O)[C@H](C)NC)C2CCCCC2)nc2cc(F)ccc21 [Embodiment 6] | 10 to 100 | –
23 | CN[C@@H](C)C(=O)N[C@H](C(=O)N1CC(F)(F)C[C@H]1Cc1c(-c2nc3cc(F)ccc3n2C[C@@H]2CC(F)(F)CN2C(=O)[C@@H](NC(=O)[C@H](C)NC)C(C)C)[nH]c2cc(F)ccc12)C(C)C [Embodiment 45] | 10 to 100 | –
24 | CCC[C@H](NC(=O)[C@H](C)NC)C(=O)N1CCC[C@H]1Cn1c(-c2[nH]c3cc(F)ccc3c2C[C@@H]2CCCN2C(=O)[C@@H](NC(=O)[C@H](C)NC)C(C)(C)C)nc2cc(F)ccc21 [Embodiment 11] | 10 to 100 | –
25 | CCC[C@H](NC(=O)[C@H](C)NC)C(=O)N1CCC[C@H]1Cn1c(-c2[nH]c3cc(F)ccc3c2C[C@@H]2CCCN2C(=O)[C@@H](NC(=O)[C@H](C)NC)C2CCCCC2)nc2cc(F)ccc21 [Embodiment 12] | 10 to 100 | –
